Data from PMC10775801 (Drug Design, Development and Therapy, 2024).
Read-outs that look alike come from different tables or passages of the source.

Experiments:
[1] = type: in vivo, Sprague-Dawley rats; details: rat plasma
in vivo = experiment: in vivo; parameters: species or system Sprague-Dawley rats; details: rat
[2] = type: in vitro ADME, rat; details: room temperature (25 °C for 24 h), sampler 4 °C for 24 h, three freeze-thaw cycles (−20 °C to 25 °C), −80 °C for 14 days
[3] = SD rats, oral 15 mg/kg; cited from earlier work
[4] = mice, rats, and dogs; ref a previous article; cited from earlier work
[5] = healthy volunteers, cited from earlier work
[6] = oral 30 mg/kg, 4 h after administration

C=C(F)C(=O)N1CCN(c2nc(OC[C@@H]3CCCN3C)nc3c2CCN(c2cccc4cccc(Cl)c24)C3)C[C@@H]1CC#N [Adagrasib]
presence in plasma after intravenous administration ([1]; 10 h after intravenous administration): disappeared completely from the plasma
plasma concentration at 24 h ([1]; 24h after single oral administration): very low plasma concentration
concentration at 2 h (in vivo; male, Sprague-Dawley, in vivo, po, 30 mg/kg): 5050 ± 676 ng/g
presence in testis (in vivo; oral 30 mg/kg): not found
highest concentration in heart (in vivo; [6]): 70.49 ± 32.73 ng/g
highest concentration in kidney (in vivo; [6]): 1787.02 ± 364.44 ng/g
highest concentration in lung (in vivo; [6]): 3897.76 ± 217.27 ng/g
highest concentration in pancreas (in vivo; [6]): 648.72 ± 305.97 ng/g
highest concentration in spleen (in vivo; oral 30 mg/kg, 8 h after administration): 3891.80 ± 699.19 ng/g
detectability in the organs (except intestine) at 24 hours (in vivo; oral 30 mg/kg, 24 hours after administration): still detectable
stability in plasma samples and homogenate [2]: stable
Cmax [3]: 122.3 ng/mL
t1/2 [3]: 10.13 h
tmax [3]: 6 h
tmax [4]: 4 to 6 h
tmax ([5]; multiple-dose administration): 2.96 h
tmax ([5]; recommended dose of 600 mg): 4.17 h
